What was measured:
Assay type in all cases: biochemical
[1] = biological target: T1, phosphorylated VEGF-R2Δ50 (FLVK-P) (Homo sapiens, UniProt P35968, DEL940-989/E990V); test: VEGF-R2 coupled spectrophotometric (FLVK-P) assay; settings: read-out: VEGF % inhibition at 20 μM, 20 μM; combinatorial library compounds
T1 construct: VEGF-R2Δ50 contains residues 806-939 and 990-1171; made in house; host or cells: baculovirus/insect cells
How it was run: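 Baculovirus-expressed human VEGF-R2Δ50 (residues 806-939/990-1171, E990V) was autophosphorylated with 3 mM ATP, 40 mM MgCl2 for 2 h at 4° C. ADP formation was coupled via PK/LDH to NADH oxidation, read at 340 nm, with 5.1 mM poly(E4Y1), 1 mM ATP, 25 mM MgCl2, Hepes pH 7.5. Ki came from activity across compound concentrations.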

[2] = biological target: T2, FL-CHK1 (Homo sapiens, UniProt O14757); test: CHK1 assay; settings: 20 μM; combinatorial library compounds
T2 construct: C-terminally His-tagged full-length human CHK1 (FL-CHK1); 6xHis (C); made in house; host or cells: baculovirus/insect cells
T2 sequence (O14757 1-476): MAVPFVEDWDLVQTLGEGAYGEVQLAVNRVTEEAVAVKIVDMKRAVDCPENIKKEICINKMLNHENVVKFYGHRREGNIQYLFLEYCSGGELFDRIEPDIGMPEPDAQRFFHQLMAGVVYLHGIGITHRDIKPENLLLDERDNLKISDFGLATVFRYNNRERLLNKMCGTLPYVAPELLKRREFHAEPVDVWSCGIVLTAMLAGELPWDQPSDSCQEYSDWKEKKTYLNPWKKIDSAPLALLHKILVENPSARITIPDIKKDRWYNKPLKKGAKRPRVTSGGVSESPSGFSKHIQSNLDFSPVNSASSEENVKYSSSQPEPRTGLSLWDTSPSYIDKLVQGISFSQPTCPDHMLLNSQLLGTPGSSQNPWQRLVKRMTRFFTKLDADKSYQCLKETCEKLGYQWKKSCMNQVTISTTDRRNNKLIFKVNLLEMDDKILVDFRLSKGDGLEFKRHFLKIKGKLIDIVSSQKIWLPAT
How it was run: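 Full-length human CHK1 with C-terminal 6×His tag, made in baculovirus/insect cells, 10 nM, phosphorylating 0.125 mM Syntide-2 with 0.15 mM ATP in 50 mM Tris pH 7.5, 25 mM MgCl2, 400 mM NaCl. PK/LDH-coupled NADH oxidation read at 340 nm. Ki from initial rates over varied compound concentrations.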

[3] = biological target: CDK2/Cyclin A complex (Homo sapiens, UniProt P24941); test: CDK2/Cyclin A assay; settings: 1.0 μM; combinatorial library compounds
How it was run: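 Radiometric assay: 150 nM CDK2/cyclin A (insect-cell CDK2, truncated cyclin A) phosphorylates His-tagged Rb fragment (residues 386-928) with 25 μM ATP plus [32P]ATP, pH 7.4 HEPES, 2% DMSO, 30 °C for 20 min. Filter-captured product counted by phosphorimager; apparent Ki from competitive or tight-binding inhibition fits.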

[4] = biological target: T3, CDK4/Cyclin D3 complex (Homo sapiens, UniProt P11802); test: CDK4/Cyclin D assay; settings: 1.0 μM; combinatorial library compounds
T3 construct: made in house; host or cells: insect cells co-infected with baculovirus vectors
T3 sequence (P11802 whole entry): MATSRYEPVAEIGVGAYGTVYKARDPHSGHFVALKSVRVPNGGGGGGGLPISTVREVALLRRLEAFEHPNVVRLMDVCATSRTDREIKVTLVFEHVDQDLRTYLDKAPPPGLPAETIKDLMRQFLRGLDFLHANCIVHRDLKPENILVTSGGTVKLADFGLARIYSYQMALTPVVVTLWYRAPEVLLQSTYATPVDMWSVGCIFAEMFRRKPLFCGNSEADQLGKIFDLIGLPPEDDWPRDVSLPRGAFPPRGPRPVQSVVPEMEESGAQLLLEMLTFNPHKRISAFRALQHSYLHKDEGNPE
T3 sequence (P30281 whole entry partner): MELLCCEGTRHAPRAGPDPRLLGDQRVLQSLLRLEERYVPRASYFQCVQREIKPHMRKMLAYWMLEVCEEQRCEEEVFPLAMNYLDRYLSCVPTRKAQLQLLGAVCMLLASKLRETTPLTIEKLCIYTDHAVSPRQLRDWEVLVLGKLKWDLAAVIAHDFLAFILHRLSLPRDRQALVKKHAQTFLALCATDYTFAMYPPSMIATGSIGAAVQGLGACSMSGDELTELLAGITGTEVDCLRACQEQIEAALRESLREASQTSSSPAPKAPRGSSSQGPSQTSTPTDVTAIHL
How it was run: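 Insect-cell-expressed CDK4/cyclin D3 (50 nM) phosphorylating His-tagged Rb fragment (residues 386-928) with 25 μM [^32P]ATP in HEPES pH 7.4, MgCl2, 2% DMSO; 20 min at 30 °C, EDTA stop. Filter-captured 32P by phosphorimager; apparent Ki from competitive or tight-binding inhibition fits.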

T1 sequence (P35968 with tags, fused parts or gaps DEL940-989/E990V limits assumed): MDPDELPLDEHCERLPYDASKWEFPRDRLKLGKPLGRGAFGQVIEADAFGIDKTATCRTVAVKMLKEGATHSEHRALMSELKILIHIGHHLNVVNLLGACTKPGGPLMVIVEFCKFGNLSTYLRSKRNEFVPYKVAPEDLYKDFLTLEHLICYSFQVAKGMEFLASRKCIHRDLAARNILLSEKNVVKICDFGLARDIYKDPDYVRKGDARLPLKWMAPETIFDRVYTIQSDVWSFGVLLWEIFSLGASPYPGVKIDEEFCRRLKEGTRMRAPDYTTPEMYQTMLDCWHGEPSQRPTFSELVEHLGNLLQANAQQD

Row | inhibition at 20 µM [1] | inhibition at 20 µM [2] | inhibition at 1 µM [3] | inhibition at 1 µM [4] | SMILES
1 | 34% | 26.6% | 68.2% | 59.6% | Cc1cc(-c2csc(-c3sc(Nc4ccc(S(N)(=O)=O)cc4)nc3N)n2)cs1
2 | -2% | 13.1% | 35.9% | 31.8% | CC1(C)CCC(C)(C)c2cc(-c3csc(-c4sc(Nc5ccc(S(N)(=O)=O)cc5)nc4N)n3)ccc21
3 | 2% | 4.2% | 4.5% | -3.6% | Nc1nc(Nc2ccc(S(N)(=O)=O)cc2)sc1-c1nc(-c2ccc(C(F)(F)F)cc2)cs1
4 | 7% | 15.3% | 56.6% | 42.2% | Nc1nc(Nc2ccc(S(N)(=O)=O)cc2)sc1-c1nc(-c2ccc3c(c2)CCC(=O)N3)cs1
5 | 9% | -1.6% | 29% | 2.3% | Nc1nc(Nc2ccc(S(N)(=O)=O)cc2)sc1-c1nc(-c2ccccc2OC(=O)c2ccccc2)cs1
6 | -2% | 1.3% | 14.1% | -3.5% | CCc1cc2c(cc1-c1csc(-c3sc(Nc4ccc(S(N)(=O)=O)cc4)nc3N)n1)C(C)(C)CCC2(C)C
7 | 3% | 9.7% | 61.4% | 53.4% | COc1ccc2nc(-c3ccccc3)c(-c3csc(-c4sc(Nc5ccc(S(N)(=O)=O)cc5)nc4N)n3)cc2c1
8 | 3% | 5.6% | 9.2% | -0.3% | Cc1c(-c2csc(-c3sc(Nc4ccc(S(N)(=O)=O)cc4)nc3N)n2)sc2ccccc12
9 | -9% | 17.5% | 25% | 17% | CC(C)(C)c1cc(-c2csc(-c3sc(Nc4ccc(S(N)(=O)=O)cc4)nc3N)n2)cc(C(C)(C)C)c1O
10 | 25% | 9.2% | 26% | 84.7% | CC(C)c1ccc(Nc2nc(N)c(-c3nc(-c4cc(Br)c(Cl)s4)cs3)s2)cc1
11 | 7% | 23.5% | 14.2% | 71.5% | CC(C)c1ccc(Nc2nc(N)c(-c3nc(-c4ccc(Cl)c([N+](=O)[O-])c4)cs3)s2)cc1
12 | 3% | -7.9% | 15.1% | 49.7% | CC(C)c1ccc(Nc2nc(N)c(-c3nc(-c4ccc(-c5ccc(Cl)cc5Cl)o4)cs3)s2)cc1
13 | -13% | 15.6% | 6.3% | 53.3% | COc1ccccc1-c1csc(-c2sc(Nc3ccc(C(C)C)cc3)nc2N)n1
14 | -2% | 0.8% | 14.2% | 55.9% | Cc1ccc(-c2csc(-c3sc(Nc4ccc(C(C)C)cc4)nc3N)n2)cc1
15 | -10% | 1.8% | -22.6% | 38.2% | COc1ccc(-c2csc(-c3sc(Nc4ccc(C(C)C)cc4)nc3N)n2)c(OC)c1
16 | -2% | -0.2% | 10.8% | 53.1% | CC(C)c1ccc(Nc2nc(N)c(-c3nc(-c4ccc(Cl)cc4)cs3)s2)cc1
17 | 12% | -5.2% | 12.2% | 79.4% | COc1ccc(OC)c(-c2csc(-c3sc(Nc4ccc(C(C)C)cc4)nc3N)n2)c1
18 | 9% | -5.7% | 15% | 28.7% | CCOC(=O)c1cc(-c2csc(-c3sc(Nc4ccc(C(C)C)cc4)nc3N)n2)on1
19 | 16% | 32.2% | 17.7% | 63% | CC(C)c1ccc(Nc2nc(N)c(-c3nc(-c4ccccc4[N+](=O)[O-])cs3)s2)cc1

Row | inhibition at 20 µM [1] | inhibition at 20 µM [2] | inhibition at 1 µM [3] | inhibition at 1 µM [4] | SMILES
20 | -4% | 6% | 17.8% | 35.6% | CC(C)c1ccc(Nc2nc(N)c(-c3nc(-c4ccc([N+](=O)[O-])cc4)cs3)s2)cc1
21 | -7% | 9% | 11.7% | 9.1% | Cc1cc(-c2csc(-c3sc(Nc4ccc(C(C)C)cc4)nc3N)n2)ccc1Cl
22 | -9% | 3.2% | 9.6% | 0.7% | CC(C)c1ccc(Nc2nc(N)c(-c3nc(-c4ccc(-c5ccccc5)cc4)cs3)s2)cc1
23 | 10% | 3.8% | 16% | 49.3% | COc1cccc(-c2csc(-c3sc(Nc4ccc(C(C)C)cc4)nc3N)n2)c1
24 | 26% | 26% | 29.2% | 81.6% | CCOC(=O)c1ccccc1-c1csc(-c2sc(Nc3ccc(C(C)C)cc3)nc2N)n1
25 | 59% | 34.9% | 39.9% | 84.7% | Cc1c(C)c(C)c(-c2csc(-c3sc(Nc4ccc(C(C)C)cc4)nc3N)n2)c(C)c1C
26 | 13% | -4.7% | 2.4% | 50.4% | CC(C)c1ccc(Nc2nc(N)c(-c3nc(-c4cc(-c5ccccc5)no4)cs3)s2)cc1
27 | 18% | 22.8% | 28.2% | 88.6% | Cc1c(F)cc(-c2csc(-c3sc(Nc4ccc(C(C)C)cc4)nc3N)n2)cc1Cl
28 | -5% | -9% | 18.5% | -26.5% | CC(C)c1ccc(Nc2nc(N)c(-c3nc(-c4cc(-c5ccc(Cl)c(Cl)c5)no4)cs3)s2)cc1
29 | -14% | 0.7% | 3.6% | 10.3% | CCCCCc1ccc(-c2csc(-c3sc(Nc4ccc(C(C)C)cc4)nc3N)n2)cc1
30 | 14% | -12.8% | 6.6% | 44.3% | CC(=O)Oc1ccccc1-c1csc(-c2sc(Nc3ccc(C(C)C)cc3)nc2N)n1
31 | 31% | 14.8% | 26% | 86.2% | CC(C)c1ccc(Nc2nc(N)c(-c3nc(-c4c(Cl)cc(C(F)(F)F)cc4Cl)cs3)s2)cc1
32 | 46% | 19.7% | 30.6% | 91.5% | CC(C)c1ccc(Nc2nc(N)c(-c3nc(-c4ccc(F)cc4F)cs3)s2)cc1
33 | 9% | -5.3% | 12.2% | 73% | CCN(CC)c1ccc(-c2csc(-c3sc(Nc4ccc(C(C)C)cc4)nc3N)n2)cc1
34 | 25% | -4.3% | 9.3% | 72% | CC(C)c1ccc(Nc2nc(N)c(-c3nc(-c4csc5ccccc45)cs3)s2)cc1
35 | -3% | 0.7% | 10.1% | 37.8% | CC(C)c1ccc(Nc2nc(N)c(-c3nc(-c4cc(C(=O)C(Cl)(Cl)Cl)n(C)c4)cs3)s2)cc1
36 | -11% | 3.4% | 17% | 33.2% | CC(C)c1ccc(Nc2nc(N)c(-c3nc(-c4cc5cc(Cl)ccc5o4)cs3)s2)cc1
37 | 5% | 12% | 14.6% | 48.1% | CC(C)c1ccc(Nc2nc(N)c(-c3nc(-c4cccc(Br)c4)cs3)s2)cc1

From patent US6620828B2, “Thiazole compounds and pharmaceutical compositions for inhibiting protein kinases and methods for their use” (Agouron Pharmaceuticals, Inc., priority 1999, dated 2003)
